Our source for the IC50 values is patent US20240025884A1 (Dong-A ST Co., Ltd., priority 2022, published 2024).

Molecules are shown by their SMILES.

Sequence of GCN2 (Q9P2K8 whole entry): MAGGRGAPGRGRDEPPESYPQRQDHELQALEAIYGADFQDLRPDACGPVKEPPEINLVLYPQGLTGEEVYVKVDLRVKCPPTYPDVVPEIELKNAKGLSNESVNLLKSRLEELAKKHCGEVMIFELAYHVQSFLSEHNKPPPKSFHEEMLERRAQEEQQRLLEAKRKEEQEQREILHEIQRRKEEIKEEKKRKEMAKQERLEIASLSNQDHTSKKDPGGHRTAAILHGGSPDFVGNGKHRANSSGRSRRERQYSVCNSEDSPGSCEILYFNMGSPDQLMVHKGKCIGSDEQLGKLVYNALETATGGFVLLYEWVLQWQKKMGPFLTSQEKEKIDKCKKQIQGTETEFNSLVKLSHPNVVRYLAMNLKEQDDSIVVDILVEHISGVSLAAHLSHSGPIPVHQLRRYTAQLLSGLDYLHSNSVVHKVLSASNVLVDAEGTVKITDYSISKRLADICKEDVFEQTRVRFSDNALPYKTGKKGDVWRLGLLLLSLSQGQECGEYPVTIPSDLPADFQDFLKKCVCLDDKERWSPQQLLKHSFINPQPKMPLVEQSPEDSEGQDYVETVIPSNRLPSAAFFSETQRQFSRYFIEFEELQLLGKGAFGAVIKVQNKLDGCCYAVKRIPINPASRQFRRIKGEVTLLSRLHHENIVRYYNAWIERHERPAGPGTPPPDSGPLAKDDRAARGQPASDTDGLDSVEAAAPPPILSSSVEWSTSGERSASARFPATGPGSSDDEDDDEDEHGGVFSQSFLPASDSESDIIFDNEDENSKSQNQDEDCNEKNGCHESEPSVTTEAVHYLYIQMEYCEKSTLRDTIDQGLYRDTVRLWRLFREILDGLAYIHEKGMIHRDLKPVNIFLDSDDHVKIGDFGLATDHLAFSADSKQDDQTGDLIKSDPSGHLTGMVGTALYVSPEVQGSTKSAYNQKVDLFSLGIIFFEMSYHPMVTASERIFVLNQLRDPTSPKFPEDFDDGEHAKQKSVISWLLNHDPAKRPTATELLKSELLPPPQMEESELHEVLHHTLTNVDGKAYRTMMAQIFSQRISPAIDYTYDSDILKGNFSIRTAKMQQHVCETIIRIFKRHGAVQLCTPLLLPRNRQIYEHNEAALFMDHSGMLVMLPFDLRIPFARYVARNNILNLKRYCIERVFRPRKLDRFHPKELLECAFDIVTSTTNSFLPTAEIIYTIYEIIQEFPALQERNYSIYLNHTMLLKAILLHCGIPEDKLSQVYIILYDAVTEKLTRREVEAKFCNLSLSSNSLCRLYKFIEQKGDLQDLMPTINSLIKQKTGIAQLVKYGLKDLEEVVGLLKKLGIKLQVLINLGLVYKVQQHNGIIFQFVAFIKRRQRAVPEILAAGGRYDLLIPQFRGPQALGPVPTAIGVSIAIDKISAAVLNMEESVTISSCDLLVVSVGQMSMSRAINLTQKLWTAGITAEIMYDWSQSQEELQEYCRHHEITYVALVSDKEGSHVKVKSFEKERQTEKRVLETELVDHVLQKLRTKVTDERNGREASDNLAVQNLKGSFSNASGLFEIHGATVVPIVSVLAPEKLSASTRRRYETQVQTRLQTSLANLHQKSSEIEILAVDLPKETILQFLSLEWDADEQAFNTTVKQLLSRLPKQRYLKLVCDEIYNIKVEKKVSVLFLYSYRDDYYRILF

This experiment addresses GCN2 (Homo sapiens (Human), UniProt Q9P2K8). The experiment can be described thus: GCN2 Biochemical Assay (TR-FRET, GFP-eIF2S1 substrate phosphorylation). Conditions: read-out: IC50 (GCN2 Inhibitory Activity). The protocol:
Experimental Example 1: GCN2 Biochemical Assay
An inhibitory effect of the inventive compound on GCN2 was identified as follows.
384-well (Greiner #784075) (or 1536-well [Greiner #782075]) plates containing 60 nl (or 20 nl for 1536-well) of compound in 100% DMSO (10 concentrations serially diluted 3.16-fold) were prepared. Two copies of plates were used—one for the GCN2 assay and a second for an artifact plate. Working reagents were prepared as follows—reaction buffer: Tris pH 7.5 20 mM, MgCl2 5 mM, DTT 1 mM, Brij-35 0.005%, EGTA 0.5 mM in water; 2× enzyme solution: GCN2 (produced in-house) 1.6 nM in reaction buffer; 2× substrate solution: GFP-eIFS1 (Thermo Fisher Scientific, PV4809) 50 nM, ATP 0.2 mM, tRNA 0.4 mg/ml in reaction buffer; p-GFP-eIF2S1 (artifact) solution: p-GFP-eIFS1 (produced by incubation of 100 nM GFP-eIF2S1 in reaction buffer with 100 uM ATP and 1 nM PERK KD enzyme for 3 hr at room temperature) 2 nM in reaction buffer; 3× stop/antibody solution: p-GFP-EIF2S1 Th-Ab (Thermo Fisher Scientific, PV4816) 6 nM, AZ13933939 3 uM, BSA 3% in reaction buffer. Reagents were loaded onto a liquid dispenser (Certus FLEX, Trajan Scientific and Medical), and 3 ul (1 ul for 1536-well) of 2× enzyme solution, followed by 3 ul (1 ul for 1536-well) of 2× substrate solution was added to the plates. When small numbers of plates were processed, the enzyme solution was added first to all plates, then the valve used for the substrate solution was primed immediately prior to use. Plates were tapped or spun 1 min/1K/RT to ensure proper mixing, followed by incubation at room temperature for 70 mins, covered/stacked in the dark. For the artifact plate, 6 ul of p-GFP-eIF2S1 solution was added prior to adding the stop/antibody solution. 3 ul (1 ul for 1536-well) of 3× stop/antibody solution was added to the plates, followed by a spin-down for 1 min/1K/RT, and incubation for 2-3 hr, sealed or covered with lids in the dark at room temperature. Plates were read on a plate reader (PHERAstar FSX, BMF Labtech) at Ex 340/Em 490/Em 520 nm.
As usually defined, the IC50 is the concentration needed to halve the response being measured. Consider `Cc1cnc(Nc2cc(C)n(C)n2)nc1-c1c[nH]c2c(NC(=O)CN3CC[C@H](Oc4cc(C(=O)N(C)C)on4)C3)cccc12` [Example 125, (S)-3-((1-(2-((3-(2-((1,5-dimethyl-1H-pyrazol-3-yl)amino)-5-methylpyrimidin-4-yl)-1H-indol-7-yl)amino)-2-oxoethyl)pyrrolidin-3-yl)oxy)-N,N-dimethylisoxazole-5-carboxamide], for which the half-maximal inhibitory concentration (IC50) is 10 to 100 nM.

As for `Cc1cnc(Nc2cc(C)n(C)n2)nc1-c1c[nH]c2c(NC(=O)CN3CC[C@H](Oc4ccnc(NCCF)n4)C3)cccc12` [Example 202, (S)-N-(3-(2-((1,5-dimethyl-1H-pyrazol-3-yl)amino)-5-methylpyrimidin-4-yl)-1H-indol-7-yl)-2-(3-((2-((2-fluoroethyl)amino)pyrimidin-4-yl)oxy)pyrrolidin-1-yl)acetamide], the IC50 is < 10 nM. For `Cc1cnc2c(c1)CN(c1cccc3c(-c4nc(Nc5cc(C)n(C)n5)ncc4C)c[nH]c13)C2=O` [Example 287, 6-(3-(2-((1,5-dimethyl-1H-pyrazol-3-yl)amino)-5-methylpyrimidin-4-yl)-1H-indol-7-yl)-3-methyl-5,6-dihydro-7H-pyrrolo[3,4-b]pyridin-7-one] the value was < 10 nM. For `Cc1cnc(Nc2cc(C)n(C)n2)nc1-c1c[nH]c2c(NC(=O)CN3CC[C@H](Oc4ncc(F)c(N5CCCC5)n4)C3)cccc12` [Example 186, (S)-N-(3-(2-((1,5-dimethyl-1H-pyrazol-3-yl)amino)-5-methylpyrimidin-4-yl)-1H-indol-7-yl)-2-(3-((5-fluoro-4-(pyrrolidin-1-yl)pyrimidin-2-yl)oxy)pyrrolidin-1-yl)acetamide] the value was < 10 nM; for `Cc1cnc(Nc2cc(C)n(C)n2)nc1-c1c[nH]c2c(N3Cc4c(cccc4-c4ccnc(N5CCNCC5)c4)C3=O)cccc12` [Example 408, 2-(3-(2-((1,5-dimethyl-1H-pyrazol-3-yl)amino)-5-methylpyrimidin-4-yl)-1H-indol-7-yl)-4-(2-(piperazin-1-yl)pyridin-4-yl)isoindolin-1-one], < 10 nM; for `Cc1cnc(Nc2cc(C)n(C)n2)nc1-c1c[nH]c2c(N3Cc4c(cccc4C4=CCN(C)CC4)C3=O)cccc12` [Example 464, 2-(3-(2-((1,5-dimethyl-1H-pyrazol-3-yl)amino)-5-methylpyrimidin-4-yl)-1H-indol-7-yl)-4-(i-methyl-1,2,3,6-tetrahydropyridin-4-yl)isoindolin-1-one], < 10 nM.

Take `Cc1cnc(Nc2cc(C)n(C)n2)nc1-c1c[nH]c2c(NC(=O)CN3C[C@@H](Oc4ccnc(NC5CC5)n4)CC3=O)cccc12` [Example 61, (S)-2-(4-((2-(cyclopropylamino)pyrimidin-4-yl)oxy)-2-oxopyrrolidin-1-yl)-N-(3-(2-((1,5-dimethyl-1H-pyrazol-3-yl)amino)-5-methylpyrimidin-4-yl)-1H-indol-7-yl)acetamide]: the concentration for half-maximal inhibition (IC50) is < 10 nM.

For the molecule `Cc1cnc(Nc2cc(C)n(C)n2)nc1-c1c[nH]c2c(NC(=O)CN3CC[C@H](Oc4ccsn4)C3)cccc12` [Example 114, (S)-N-(3-(2-((1,5-dimethyl-1H-pyrazol-3-yl)amino)-5-methylpyrimidin-4-yl)-1H-indol-7-yl)-2-(3-(isothiazol-3-yloxy)pyrrolidin-1-yl)acetamide], the IC50 was in the range of 10 to 100 nM. The same measure for `Cc1cnc(Nc2cc(C)n(C)n2)nc1-c1c[nH]c2c(NC(=O)CN3CC[C@H](Oc4ccnc(NC5CC5)n4)C3)cc(N)cc12` [Example 2, (S)-N-(5-amino-3-(2-((1,5-dimethyl-1H-pyrazol-3-yl)amino)-5-methylpyrimidin-4-yl)-1H-indol-7-yl)-2-(3-((2-(cyclopropylamino)pyrimidin-4-yl)oxy)pyrrolidin-1-yl)acetamide]: 10 to 100 nM; for `Cc1cnc(Nc2cc(C)n(C)n2)nc1-c1c[nH]c2c(N3Cc4c(NC(=O)C5Cc6ccccc6C5)cccc4C3=O)cccc12` [Example 314, N-(2-(3-(2-((1,5-dimethyl-1H-pyrazol-3-yl)amino)-5-methylpyrimidin-4-yl)-1H-indol-7-yl)-1-oxoisoindolin-4-yl)-2,3-dihydro-1H-indene-2-carboxamide]: 10 to 100 nM; for `Cc1cnc(Nc2cc(C)n(C)n2)nc1-c1c[nH]c2c(N3Cc4c(NC(=O)C5(C)CCOCC5)cccc4C3=O)cccc12` [Example 328, N-(2-(3-(2-((1,5-dimethyl-1H-pyrazol-3-yl)amino)-5-methylpyrimidin-4-yl)-1H-indol-7-yl)-1-oxoisoindolin-4-yl)-4-methyltetrahydro-2H-pyran-4-carboxamide]: < 10 nM. Regarding `Cc1cnc(Nc2cc(C)n(C)n2)nc1-c1c[nH]c2c(N3Cc4c(C#Cc5ccccc5)cccc4C3=O)cccc12` [Example 356, 2-(3-(2-((1,5-dimethyl-1H-pyrazol-3-yl)amino)-5-methylpyrimidin-4-yl)-1H-indol-7-yl)-4-(phenylethynyl)isoindolin-1-one], the IC50 was in the range of 100 to 1000 nM. For `Cc1cnc(Nc2cc(C)n(C)n2)nc1-c1c[nH]c2c(N3Cc4c(cccc4-c4ccc(C#N)cc4F)C3=O)cccc12` [Example 433, 4-(2-(3-(2-((1,5-dimethyl-1H-pyrazol-3-yl)amino)-5-methylpyrimidin-4-yl)-1H-indol-7-yl)-1-oxoisoindolin-4-yl)-3-fluorobenzonitrile] the value was 10 to 100 nM. The same measure for `Cc1cnc(Nc2cc(C)n(C)n2)nc1-c1c[nH]c2c(N3Cc4c(-c5ccnc(N(C)C)c5)ccc(F)c4C3=O)cccc12` [Example 483, 2-(3-(2-((1,5-dimethyl-1H-pyrazol-3-yl)amino)-5-methylpyrimidin-4-yl)-1H-indol-7-yl)-4-(2-(dimethylamino)pyridin-4-yl)-7-fluoroisoindolin-1-one]: < 10 nM. Consider `Cc1cnc(Nc2cc(C)n(C)n2)nc1-c1c[nH]c2c(N3Cc4c(cccc4C4=CCN(C(=O)OC(C)(C)C)CC4)C3=O)cccc12` [Example 397, tert-butyl 4-(2-(3-(2-((1,5-dimethyl-1H-pyrazol-3-yl)amino)-5-methylpyrimidin-4-yl)-1H-indol-7-yl)-1-oxoisoindolin-4-yl)-3,6-dihydropyridine-1(2H)-carboxylat], for which the IC50 was < 10 nM. For `CNC(=O)c1sccc1O[C@H]1CCN(CC(=O)Nc2cccc3c(-c4nc(Nc5cc(C)n(C)n5)ncc4C)c[nH]c23)C1` [Example 110, (S)-3-((1-(2-((3-(2-((1,5-dimethyl-1H-pyrazol-3-yl)amino)-5-methylpyrimidin-4-yl)-1H-indol-7-yl)amino)-2-oxoethyl)pyrrolidin-3-yl)oxy)-N-methylthiophene-2-carboxamide] the value was < 10 nM; for `Cc1cnc(Nc2cc(C)n(C)n2)nc1-c1c[nH]c2c(N3Cc4c(cccc4-c4cccn4C(=O)OC(C)(C)C)C3=O)cccc12` [Example 443, tert-butyl 2-(2-(3-(2-((1,5-dimethyl-1H-pyrazol-3-yl)amino)-5-methylpyrimidin-4-yl)-1H-indol-7-yl)-1-oxoisoindolin-4-yl)-1H-pyrrole-1-carboxylate], 10 to 100 nM; for `Cc1cnc(Nc2cc(C)n(C)n2)nc1-c1c[nH]c2c(N3Cc4c(NC(=O)c5ccncc5)cccc4C3=O)cccc12` [Example 301, N-(2-(3-(2-((1,5-dimethyl-1H-pyrazol-3-yl)amino)-5-methylpyrimidin-4-yl)-1H-indol-7-yl)-1-oxoisoindolin-4-yl)isonicotinamide], < 10 nM.

Turning to `Cc1cnc(Nc2cc(C)n(C)n2)nc1-c1c[nH]c2c(NC(=O)CN3CC[C@H](Oc4nccc(C(N)=O)n4)C3)cccc12` [Example 129, (S)-2-((1-(2-((3-(2-((1,5-dimethyl-1H-pyrazol-3-yl)amino)-5-methylpyrimidin-4-yl)-1H-indol-7-yl)amino)-2-oxoethyl)pyrrolidin-3-yl)oxy)pyrimidine-4-carboxamide], the IC50 fell in the range of 10 to 100 nM.

As for `Cc1cc(Nc2nccc(-c3c[nH]c4c(NC(=O)CN5CC[C@H](Oc6cc(NC7CC7)ncn6)C5)cccc34)n2)nn1C` [Example 7, (S)-2-(3-((6-(cyclopropylamino)pyrimidin-4-yl)oxy)pyrrolidin-1-yl)-N-(3-(2-((1,5-dimethyl-1H-pyrazol-3-yl)amino)pyrimidin-4-yl)-1H-indol-7-yl)acetamide], the IC50 is < 10 nM.

Regarding `CNc1ccc(-c2ccncc2)c2c1C(=O)N(c1cccc3c(-c4nc(Nc5cc(C)n(C)n5)ncc4C)c[nH]c13)C2` [Example 491, 2-(3-(2-((1,5-dimethyl-1H-pyrazol-3-yl)amino)-5-methylpyrimidin-4-yl)-1H-indol-7-yl)-7-(methylamino)-4-(pyridin-4-yl)isoindolin-1-one], the IC50 lay within 100 to 1000 nM.
